Each structure is given as a SMILES string. The source made the active and inactive calls. No cut-off for these calls is given here.

Series [1] relates to J774.A1. Put plainly: Antiinflammatory activity against mouse J774A.1 cells assessed as inhibition of LPS-stimulated TNFalpha release measured at 10 uM after 30 mins by ELISA relative to control. It is filed as functional. The settings on record: J774.A1, 0.5 h.
In series [2] the test system is J774.A1. Kind of series: Antiinflammatory activity against mouse J774A.1 cells assessed as inhibition of LPS-stimulated IL6 release measured at 10 uM after 30 mins by ELISA relative to control. It is filed as functional. Conditions: J774.A1, 0.5 h.
Series [3] deals with THP-1. Kind of series: Antiinflammatory activity against human THP-1 cells assessed as inhibition of LPS-stimulated TNFalpha mRNA expression pretreated for 2 hrs followed by stimulated with LPS by RT-qPCR analysis. It is filed as functional, cell-based. Conditions: dose 2.5-10 µM.
Series [4] relates to Mus musculus. Kind of series: Antiinflammatory activity against LPS-induced acute lung injury C57 mouse model assessed as decrease in LPS-induced protein concentration in broncho alveolar lavage fluid at 20 mg/kg, po thrice at 12 hrs interval. It is filed as functional, organism-based. Conditions: Bronchoalveolar lavage.
Series [5] relates to Mus musculus. Put plainly: Antiinflammatory activity against LPS-induced acute lung injury C57 mouse model assessed as decrease in LPS-induced total cell count in broncho alveolar lavage fluid at 20 mg/kg, po thrice at 12 hrs interval. It is filed as functional, organism-based. Conditions: Bronchoalveolar lavage.
Series [6] relates to Mus musculus. Kind of series: Antiinflammatory activity against LPS-induced acute lung injury C57 mouse model assessed as decrease in LPS-induced neutrophile count in broncho alveolar lavage fluid at 20 mg/kg, po thrice at 12 hrs interval. It is filed as functional, organism-based. Conditions: Bronchoalveolar lavage.
For series [7], the system named is Mus musculus. Kind of series: Antiinflammatory activity against LPS-induced acute lung injury C57 mouse model assessed as decrease in LPS-induced lung wet to dry weight ratio at 20 mg/kg, po thrice at 12 hrs interval. It is filed as functional, organism-based.
Series [8] has as its system Mus musculus. Put plainly: Antiinflammatory activity against LPS-induced acute lung injury C57 mouse model assessed as decrease in LPS-induced TNFalpha level in blood at 20 mg/kg, po thrice at 12 hrs interval. It is filed as functional, organism-based.
For series [9], the system named is Mus musculus. Put plainly: Antiinflammatory activity against LPS-induced acute lung injury C57 mouse model assessed as decrease in LPS-induced IL-6level in blood at 20 mg/kg, po thrice at 12 hrs interval. It is filed as functional, organism-based.
The test system of series [10] is Mus musculus. Put plainly: Antiinflammatory activity against LPS-induced septic shock mouse model assessed as improvement in survival at 20 mg/kg, po pretreated 1 hr before LPS administration measured upto 96 hrs. It is filed as functional, organism-based. Conditions: time <= 97.0 hrs.
Series [11] addresses T1, NF-kappa-B inhibitor alpha (Mus musculus) (UniProt Q9Z1E3).
T1 sequence (whole entry): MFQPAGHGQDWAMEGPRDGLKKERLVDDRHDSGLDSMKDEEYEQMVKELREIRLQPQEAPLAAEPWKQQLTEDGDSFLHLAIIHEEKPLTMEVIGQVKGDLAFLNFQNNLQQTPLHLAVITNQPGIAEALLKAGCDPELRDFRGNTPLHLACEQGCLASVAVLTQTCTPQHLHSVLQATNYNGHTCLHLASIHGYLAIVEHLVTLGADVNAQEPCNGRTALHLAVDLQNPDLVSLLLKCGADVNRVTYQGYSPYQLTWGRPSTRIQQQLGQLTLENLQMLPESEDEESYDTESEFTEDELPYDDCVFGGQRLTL
Put plainly: […] in mouse J774A.1 cells pretreated at 10 uM for 2 hrs followed by induced with LPS for 30 mins by Western blot analysis. The settings on record: J774.1. It is filed as cell-based.

Series [12] addresses Mitogen-activated protein kinase 9 (Mus musculus) (UniProt Q9WTU6). Put plainly: Binding affinity to JNK2 in protein lysate of LPS-stimulated mouse J774A.1 cells assessed as protein degradation in presence of pronase at 10 to 40 uM measured after overnight incubation by immunoblotting based drug affinity responsive target stability (DARTS) assay. It is filed as subcellular. The settings on record: J774.1, dose 10-40 µM.

The target in series [13] is Mitogen-activated protein kinase 10 (Mus musculus) (UniProt Q61831). Kind of series: Binding affinity to JNK3 in protein lysate of LPS-stimulated mouse J774A.1 cells assessed as protein degradation in presence of pronase at 10 to 40 uM measured after overnight incubation by immunoblotting based drug affinity responsive target stability (DARTS) assay. Conditions: J774.1, dose 10-40 µM. It is filed as subcellular.

Series [14] relates to Mus musculus. Put plainly: Antiinflammatory activity against LPS-induced acute lung injury C57 mouse model assessed as decrease in LPS-induced TNFalpha level in serum at 20 to 40 mg/kg, po thrice at 12 hrs interval followed 30 mins treated with LPS by ELISA. It is filed as functional, organism-based. The settings on record: dose 20-40 mg/kg, time 36.5 hrs.
The subject of series [15] is Mus musculus. Kind of series: Antiinflammatory activity against LPS-induced acute lung injury C57 mouse model assessed as reduction in LPS-induced neutrophil numbers in alveolar lavage fluid at 20 to 40 mg/kg, po thrice at 12 hrs interval followed 30 mins treated with LPS. It is filed as functional, organism-based. Conditions: dose 20-40 mg/kg, time 36.5 hrs.
Series [16] concerns Mus musculus. Kind of series: Antiinflammatory activity against LPS-induced acute lung injury C57 mouse model assessed as increase in IkappaBalpha level in lung tissue at 40 mg/kg, po thrice at 12 hrs interval followed 30 mins treated with LPS by Western blot analysis. It is filed as functional, organism-based. Conditions: time 36.5 hrs.
Series [17] is described as follows: Subacute toxicity in ICR mouse assessed as change in body weight at 500 to 100 mg/kg, IG measured for 10 days. It is filed as organism-based. Conditions: in vivo, po, 240 h, dose 500-100 mg/kg, time 10 day.
Series [18] in a line: AUC (0 to t) in Sprague-Dawley rat at 10 mg/kg, po measured upto 24 hrs by UPLC-MS/MS analysis. It is filed as ADME, organism-based. On the set-up: dose 10 mg/kg, time < 24 hrs, route po. Conditions: in vivo.
The nature of series [19]: Oral bioavailability n Sprague-Dawley rat at 10 mg/kg measured upto 24 hrs by UPLC-MS/MS analysis. It is filed as ADME, organism-based. Conditions: in vivo.
A short description of series [20]: Half life in Sprague-Dawley rat at 10 mg/kg, iv measured upto 24 hrs by UPLC-MS/MS analysis. It is filed as ADME, organism-based. Conditions: in vivo.
A short description of series [21]: Cmax in Sprague-Dawley rat at 10 mg/kg, iv measured upto 24 hrs by UPLC-MS/MS analysis. The settings on record: in vivo. It is filed as ADME, organism-based. Also on record: dose 10 mg/kg, time < 24 hrs, route iv.
The subject of series [22] is J774.A1. Put plainly: Antiinflammatory activity against mouse J774A.1 cells assessed as inhibition of LPS-stimulated TNFalpha release measured after 30 mins by ELISA. It is filed as functional, cell-based. Conditions: J774.A1, 0.5 h.

Sequence of Mitogen-activated protein kinase 9 (Mus musculus) (Q9WTU6 whole entry): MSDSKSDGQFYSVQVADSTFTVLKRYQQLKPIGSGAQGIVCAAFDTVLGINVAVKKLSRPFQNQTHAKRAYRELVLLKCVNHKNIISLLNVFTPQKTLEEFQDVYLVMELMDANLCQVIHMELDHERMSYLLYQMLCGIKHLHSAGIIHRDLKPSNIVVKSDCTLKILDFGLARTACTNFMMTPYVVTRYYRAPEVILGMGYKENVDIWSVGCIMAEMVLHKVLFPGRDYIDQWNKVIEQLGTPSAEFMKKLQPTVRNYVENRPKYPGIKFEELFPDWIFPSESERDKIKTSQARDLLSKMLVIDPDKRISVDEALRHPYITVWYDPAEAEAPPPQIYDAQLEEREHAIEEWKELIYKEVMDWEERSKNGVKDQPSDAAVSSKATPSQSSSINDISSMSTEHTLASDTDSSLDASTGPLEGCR
Sequence of Mitogen-activated protein kinase 10 (Mus musculus) (Q61831 whole entry): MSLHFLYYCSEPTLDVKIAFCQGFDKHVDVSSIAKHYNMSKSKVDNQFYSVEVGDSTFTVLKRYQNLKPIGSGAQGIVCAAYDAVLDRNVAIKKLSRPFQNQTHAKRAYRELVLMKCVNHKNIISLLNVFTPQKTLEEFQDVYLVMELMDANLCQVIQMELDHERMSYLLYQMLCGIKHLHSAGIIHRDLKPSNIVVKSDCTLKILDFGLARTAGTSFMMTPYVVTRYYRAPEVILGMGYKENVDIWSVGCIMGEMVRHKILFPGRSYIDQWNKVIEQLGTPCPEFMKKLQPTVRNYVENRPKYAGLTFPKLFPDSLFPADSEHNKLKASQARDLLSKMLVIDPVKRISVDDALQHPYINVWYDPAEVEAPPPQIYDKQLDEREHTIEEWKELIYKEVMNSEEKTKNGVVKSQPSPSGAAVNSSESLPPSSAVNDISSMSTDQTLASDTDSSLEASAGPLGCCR

On to `COc1cc2nccc(Oc3ccc(NC(=O)c4nn(-c5ccc(C)cc5)c(=O)cc4C)cc3)c2cc1OC`, for which the inhibition at 10 µM in [1] turned out to be 56.8%; in series [2], 71.5%. The values for the Activity entry in series [3] and in series [17] were “Dose-Dependent Effect” and “Non-Toxic”, respectively. Further, the result in series [4], in series [5], in series [6], in series [7], in series [12] and in series [13] was inactive. For the same compound, the outcome in [8], in series [9], in [10], in series [11], in [14] and in series [15] was Active. Moreover, in series [16], the outcome was Active. Further, in [18], the AUCt worked out at 7792.708 ng·h/mL. Further, in series [19], the F came out at 30.74%. This compound had a half-life in [20] of 1.15 h. In addition, the highest level in [21] (Cmax) was 1460 ng/mL. In addition, the IC50 in [22] was determined as 5.3 µM.

These data come from ChEMBL document CHEMBL5321290, “Discovery of the Diphenyl 6-Oxo-1,6-dihydropyridazine-3-carboxylate/carboxamide Analogue J27 for the Treatment of Acute Lung Injury and Sepsis by Targeting JNK2 and Inhibiting the JNK2-NF-κB/MAPK Pathway” (J Med Chem, 2023).
